Peptide text beside a SMILES is read from it. * marks the point of attachment. Cbz = O=C(OCc1ccccc1)*
How the values were obtained:
[1] = tested on: NGF-deprived sympathetic neurons; assay: Neurite degeneration in NGF-deprived sympathetic neurons; assay type: cell-based; conditions: 36 hr after NGF deprivation
Description: Proteasome inhibitors also delay neurite degeneration in NGF-deprived sympathetic neurons. In addition to transected axons, axons from neurons that have been deprived of their physiological trophic factors may also undergo a Wallerian-like degeneration process (reviewed by Raff et al., 2002). If the distal part of an axon of a cultured sympathetic neuron is locally deprived of NGF, that part of the axon degenerates while the rest of the cell and axon survives (Campenot, 1982). Moreover, it has been shown that such an NGF deprivation-triggered axon degeneration is delayed in the sympathetic neurons from Wld^s mice (Deckwerth and Johnson, 1994). We thus decided to investigate whether UPS is also involved in NGF deprivation-triggered axon degeneration. Consistent with previous studies (for example, Deckwerth and Johnson, 1994), 36 hr after NGF deprivation, all of the cultured sympathetic neurons underwent a typical apoptosis program with death of cell bodies as detected by nuclei staining with Hoechst 33258 (a few normally stained nuclei are glial cells) and degeneration of axons as indicated by both morphological criteria and immunostaining.

[2] = tested on: corticospinal tract (CST) after midthoracic spinal cord transection with human Schwann cell grafts; assay: Corticospinal Tract (CST) Regeneration Assay; assay type: in vivo, adult nude rat; parameters: key: dramatically reduce (+++ or ++++) axonal degeneration; dramatically reduce (+++ or ++++) axonal degeneration; conditions: inhibitor in fibrin glue; thirty-five days after grafting
Procedure: Corticospinal Tract (CST) Regeneration Assay. Proteasome inhibitors are assayed for their ability to improve corticospinal tract (CST) regeneration following thoracic spinal cord injury by promoting CST regeneration into human Schwann cell grafts in the methods of Guest et al. (1997, supra). […] Inhibitors are incorporated into a fibrin glue and placed in the same region. Anterograde tracing from the motor cortex using the dextran amine tracers, Fluororuby (FR) and biotinylated dextran amine (BDA), are performed. Thirty-five days after grafting, the CST response is evaluated qualitatively by looking for reduced degeneration of CST fibers in or beyond grafts and quantitatively by constructing camera lucida composites to determine the sprouting index (SI), the position of the maximum termination density (MTD) rostral to the GFAP-defined host/graft interface, and the longitudinal spread (LS) of bulbous end terminals. The latter two measures provide information about axonal die-back.

[3] = tested on: transected optic nerve; assay: Wallerian degeneration of transected optic nerve in vivo (gelfoam at lesion site); parameters: species or system mice; conditions: gelfoam pre-soaked with 50 mM MG132; 3 days post-axotomy; immunostaining
Description: MG132 slows down Wallerian degeneration of transected optic nerve in vivo. To assess whether these observations from in vitro culture experiments hold true in vivo, we first performed immunostaining experiments to examine the alterations of microtubules and neurofilaments in transected optic nerves. […] In optic nerves 3 days after axotomy when an antibody against NF160 still detected many linear neurofilament fibers, the antibody against a neuron specific b-tubulin detected largely spheroid bodies, reminiscent of the microtubule changes observed in vitro 16 hr post-axotomy. […] To examine whether proteasome inhibitors would retard Wallerian degeneration in vivo, we applied gelfoams pre-soaked with vehicle (PBS) or MG132 to the lesion sites and examined the transected optic nerves 3 days post-axotomy by immunostaining. Our experimental procedures were adapted from Meyer et al. (1994). In brief, adult mice were anesthetized by an intraperitoneal injection of ketamine (100 mg/kg) and xylazine (20 mg/kg). An incision was then made in the conjunctiva above the left orbit. The optic nerve was exposed under an operating microscope, and its dura opened longitudinally. […] At determined days after nerve crush, the animals were given a lethal dose of anesthesia and perfused through the heart with cold saline plus heparin followed by 4% paraformaldehyde. […]

[4] = tested on: microtubules and neurofilaments of transected axons; assay: Breakdown of axonal cytoskeleton (microtubules, neurofilaments) in transected axons, immunostaining and Western blotting; assay type: cell-based, rat; conditions: transected axons
Description: Microtubule destabilization at the initiation stage of Wallerian degeneration in vitro. We next examined which cellular events might correlate with the involvement of UPS and calpains in Wallerian degeneration. We monitored the integrity of different subcellular organelles in the transected axons by both immunocytochemistry and membrane labeling. […] At the protein level, we observed a corresponding cleavage of the neurofilament subunits, neurofilament 160 (NF-160) and neurofilament 68 (NF68) as detected by Western blotting.
Apart from these axonal markers, however, the earliest detectable change appears to occur in the microtubules of transected axons. […] After 12 hr post-axotomy, the stained signals of fragmented microtubule structures weakened gradually and were replaced by many spheroid bodies in severed axons. By 16 hr after axotomy, almost all of the detected signals were spheroid bodies along the tracts of original axons. Even 16 hrs after axotomy when the majority of the axonal NF160 and NF68 has been degraded, most of the tubulin proteins still remained intact and the protein level remained stable according to Western blotting. To provide additional biochemical evidence for such an axotomy-elicited microtubule destabilization in transected axons at early stages of Wallerian degeneration, we separated monomeric (soluble, S) and polymerized (pellet, P) tubulins from transected axons and measured the depolymerization ratio (S/[S+P]) at different time points.
UPS and calpains mediate the breakdown of axonal cytoskeleton components. To explore the link between these cellular and molecular changes during Wallerian degeneration, we next examined whether proteasome inhibitors, calpain inhibitors, and EGTA affect neurofilaments and microtubules in transected axons. […] On the other hand, ALLN only delayed neurofilament degradation, but not the fragmentation of microtubules.

Question: With CC(C)C[C@@H](C=O)NC(=O)[C@H](CC(C)C)NC(=O)[C@H](CC(C)C)NC(=O)OCc1ccccc1 [MG-132, Carbobenzoxy-L-leucyl-L-leucyl-L-leucinal] (Cbz-Leu-Leu-Leu-aldehyde) as the molecule, how does the “axon (neurite) degeneration after NGF deprivation” value [1] read?
Answer: the majority of the axons were still intact

Question: And the “death of cell bodies after NGF deprivation” value ([1]; Hoechst 33258 nuclei staining)?
Answer: still showed clear apoptotic staining

Question: And the “Reduce Degeneration” value [2]?
Answer: +++

Question: What about the “breakdown of microtubules, neurofilaments and axolemma in transected optic nerves” value [3] of the same molecule?
Answer: significantly slowed

Question: What about the “degeneration of all examined subcellular markers (destabilization of microtubules and cleavage of neurofilaments)” value [4] of the same molecule?
Answer: profoundly retarded
